Where two headings read alike, the source gives them in different places.
Assays:
CCR5 = CCR5 (Homo sapiens, UniProt P51681); assay: CCL5-induced calcium signaling (Fluo-4-AM intracellular calcium assay) in MDA-MB-231 cells; format: cell-based; settings: antagonist 100 nmol/L for 30 minutes before addition of CCL5
Method: Micrographs illustrate the axis (x-x′) of the pseudoline scan plot. Those axes were used to construct the adjacent intensity versus time plots. […] The data in FIGS. 3B and 3D are mean±SEM of 3 to 4 independent experiments. Statistical analysis was conducted using the Student t test.
Calcium responses induced either by CCL5 or FBS in human cancer cell lines were monitored under fluorescence confocal microscope as previously reported (28). Briefly, breast cancer cells were seeded in 4-well labtek chambers (Nunc) at 10^4 cells/cm^2 and incubated for 1 day. After 12-hour starvation, cells were labeled by incubating them with […] Fluo-4-AM (Molecular Probes) in HBSS for 30 minutes, washed twice, and incubated for additional 30 minutes before imaging under the microscope. Time-lapse images were collected using a Zeiss LSM 510 Meta inverted confocal microscope with the incubator at 37° C. Relative intracellular Ca^2+ concentration was determined by the changes in fluorescent intensity (FI) of Fluo-4-AM upon the addition of CCL5 (60 ng/mL) or FBS (5%) and was calculated as (FIt−FI0)/FI0.
The importance of CCR5 in HIV infection led to the development of different drugs that target this receptor.

[1] = test system: Hs578T breast cancer cells; assay: FBS-induced 3D invasion into collagen gels, Hs578T; format: cell-based, human; settings: 100 nmol/L, 5% FBS as chemoattractant
Method: (§1) In FIG. 4A, there is shown 3D reconstruction of FBS-induced invasion into collagen gels by Hs578T breast cancer cells in presence of CCR5 antagonists (100 nmol/L). In FIG. 3C there is shown 3D reconstruction of FBS-induced invasion into collagen gels by SUM-159 breast cancer cells in presence of CCR5 antagonists (100 nmol/L).
(§2) The 3-dimensional invasion assay was conducted as previously reported (12). Briefly, 100 μL of 1.67 mg/mL Rat Tail collagen type I (BD Biosciences) was pipetted into the top chamber of a 24-well 8-μm pore Transwell (Corning). The Transwell was incubated at 37° C. overnight to allow the collagen to solidify. A total of 30,000 cells were then seeded on the bottom of the Transwell membrane and allowed to attach. Serum-free growth medium was placed into the bottom chamber, whereas 15 ng/mL CCL5 or 5% FBS was used as a chemoattractant in the medium of the upper chamber. The cells were then chemoattracted across the filter through the collagen above for 3 days. Cells were fixed in 4% formaldehyde, permeabilized with 0.2% Triton-X in PBS, and then stained with 40 μg/mL propidium iodide (PI) for 2 hours. Fluorescence was analyzed by confocal z-sections (one section every 20 μm) at ×10 magnification from the bottom of the filter using a Zeiss LSM 510 Meta inverted confocal microscope at the Kimmel Cancer Center Bioimaging Facility. […]

[2] = test system: SUM-159 breast cancer cells; assay: FBS-induced 3D invasion into collagen gels, SUM-159; format: cell-based, human; settings: SUM-159 cells; 100 nmol/L; 5% FBS as chemoattractant
Method: as §1, §2

MDA-MB-231 cells = assay: MTT cell viability assay; format: cell-based, human; settings: increasing concentrations, 48 hours
Excerpt: In FIG. 6A, there is shown the effect of CCR5 antagonist on breast cancer cell viability. […] Graph is from a representative experiment carried out by sextuplicate. No statistical differences were found (ANOVA) in 3 independent experiments. In FIG. 6B, there is shown CCR5 expression in MDA-MB-231 cells stably transfected with pcDNA3.1+/Zeo+ (MDA.Vector) or human CCR5 cloned into pCDNA3+Zeo+ (MDA.CCR5). […] Representative experiment from 2 carried out by sextuplicate. […] Thus, the reduction in tumor mass in the lungs is due to the inhibition of “homing” or spread of tumors to the lung. […] Cells expressing eGFP were counted in 3 random fields of 2 different histologic sections (separated 700 μm from each other) per mouse (n=5 mice per group). Statistical analysis was conducted using Student t test. Bar in micrographs, 100 μm.
The MTT assay is a colorimetric assay for measuring the activity of cellular enzymes that reduce the tetrazolium dye, 3-(4,5-Dimethylthiazol-2-yl)-2,5-diphenyltetrazolium bromide, a yellow tetrazole (MTT), to its insoluble formazan, giving a purple color. […]
The effects of CCR5 antagonists on cell viability and proliferation rate were estimated using the soluble tetrazolium salt MTT assay (29). […] Then, the reduced (insoluble and colored) formazan was dissolved in DMSO and measured spectrophotometrically at 570 nm. […]

[3] = test system: MDA-MB-231 cells (MDA.pFULG) pulmonary metastases; assay: Experimental lung metastasis assay (tail vein injection of MDA.pFULG cells, BLI, histology); format: in vivo, NOD/SCID mice
Method: In FIG. 5A, MDA-MB-231 cells transduced with Luc2-eGFP fusion protein were injected into the tail vein of NOD/SCID mice and the in vivo bioluminescent signal was quantified weekly. […] Tumor area was quantified with the Nikon Elements BR 3.0 software analyzing at low magnification (×40) 2 random fields of 2 different histologic sections (separated 600 μm from each other) per mouse. Statistical analysis was conducted using the Student t test with Welch correction for heterogeneous variances (n=33 and 12 for control and treated groups, respectively).
MB-MDA-231 cells expressing Luc2-eGFP (called MDA.pFLUG for the rest of the article) were detached with a nonenzymatic cell dissociation buffer (4 mmol/L EDTA in Ca^2+ and Mg^2+-free PBS), resuspended in Dulbecco's PBS without Ca^2+ and Mg^2+ and immediately injected into the tail vein of 8-week-old, female nonobese diabetic/severe combined immunodeficient (NOD/SCID) mice (NCI, Bethesda Md.). Each mouse received 10^6 cells. […] Treatment was started immediately after injection or 10 days later for the experiments analyzing the proliferation of established metastasis. For in vivo bioluminescence imaging (BLI), mice were given an intraperitoneal (i.p.) injection with 200 μL of d-luciferin (30 mg/mL). Mice were anesthetized with isoflurane (2% in 1 L/min oxygen), and bioluminescence images were acquired 10 to 15 minutes after d-luciferin injection using the IVIS XR system (Caliper Life Sciences). Acquisition times ranged from 10 seconds (for later time points) to 5 minutes (for early time points). Data are expressed as total photon flux and were analyzed using Living Image 3.0 software (Caliper Life Sciences). For ex vivo BLI, d-luciferin was diluted in PBS to a final concentration of 300 μg/mL and used to soak freshly isolated lungs for 2 to 3 minutes before imaging. Some lungs were stained with India ink, as previously reported (33), or processed and stained with hematoxylin and eosin to corroborate the presence of pulmonary tumors. For homing assays, mice were euthanized 24 hours after the intravenous injection of MDA.pFULG cells. Lungs were perfused with PBS, fixed with freshly prepared formaldehyde (4% in PBS), and frozen in optimum cutting temperature (Sakura Finetek). Cryosections (10 μm) were counterstained with 4′,6-diamidino-2-phenylindole analyzed by confocal microscopy. Animal experiments were approved by the Thomas Jefferson University's Institutional Animal Care and Use Committee.
MDA-MB-231 cells transduced within the Luc2-eGFP lentiviral vector (MDA.pFULG cells) were used in an experimental metastasis model. The Luc2 gene is a codon-optimized version of Luc and cells expressing this reporter were 10 to 100 times brighter than the unmodified Luc gene (30). […]

[4] = test system: MDA-MB-231 cells (MDA.pFULG) established pulmonary metastasis; assay: Growth of established pulmonary metastasis (treatment started 10 days after cell injection); format: in vivo, NOD/SCID mice; settings: 8 mg/kg every 12 hours; treatment initiated 10 days after injection of cells
Excerpt: (§3) In FIG. 6A, there is shown the effect of CCR5 antagonist on breast cancer cell viability. […] Graph is from a representative experiment carried out by sextuplicate. No statistical differences were found (ANOVA) in 3 independent experiments. In FIG. 6B, there is shown CCR5 expression in MDA-MB-231 cells stably transfected with pcDNA3.1+/Zeo+ (MDA.Vector) or human CCR5 cloned into pCDNA3+Zeo+ (MDA.CCR5). […] Representative experiment from 2 carried out by sextuplicate. […] Thus, the reduction in tumor mass in the lungs is due to the inhibition of “homing” or spread of tumors to the lung. […] Cells expressing eGFP were counted in 3 random fields of 2 different histologic sections (separated 700 μm from each other) per mouse (n=5 mice per group). […]
(§4) MB-MDA-231 cells expressing Luc2-eGFP (called MDA.pFLUG for the rest of the article) were detached with a nonenzymatic cell dissociation buffer (4 mmol/L EDTA in Ca^2+ and Mg^2+-free PBS), resuspended in Dulbecco's PBS without Ca^2+ and Mg^2+ and immediately injected into the tail vein of 8-week-old, female nonobese diabetic/severe combined immunodeficient (NOD/SCID) mice (NCI, Bethesda Md.). […] Data are expressed as total photon flux and were analyzed using Living Image 3.0 software (Caliper Life Sciences). […] Cryosections (10 μm) were counterstained with 4′,6-diamidino-2-phenylindole analyzed by confocal microscopy. […]

MDA.pFULG cells = assay: Homing assay: lung colonization 24 hours after injection of MDA.pFULG cells; format: in vivo, mice; settings: 10 administrations (twice a day for 5 days) before i.v. injection of cells; lungs 24 hours after injection
Excerpt: as §3, §4

[5] = humans; oral dose of 300 mg; cited from earlier work
[6] = mice; 16 mg/kg; cited from earlier work
[7] = 8 mg/kg twice daily, oral gavage

Chain of CCR5 (P51681 whole entry): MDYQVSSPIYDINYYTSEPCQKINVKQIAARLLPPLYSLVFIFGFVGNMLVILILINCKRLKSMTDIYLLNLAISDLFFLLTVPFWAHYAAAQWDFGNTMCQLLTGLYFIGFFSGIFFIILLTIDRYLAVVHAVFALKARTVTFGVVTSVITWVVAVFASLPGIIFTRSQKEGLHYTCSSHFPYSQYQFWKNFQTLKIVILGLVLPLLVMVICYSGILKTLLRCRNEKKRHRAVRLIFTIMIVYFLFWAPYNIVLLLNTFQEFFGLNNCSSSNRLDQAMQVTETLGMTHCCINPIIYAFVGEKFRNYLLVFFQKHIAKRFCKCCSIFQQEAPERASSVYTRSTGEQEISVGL

SMILES	inhibition of CCL5-induced calcium responses (CCR5) [%]	FBS-induced breast cancer cell invasion [1]	FBS-induced breast cancer cell invasion [2]	cell viability (MTT reduction) (MDA-MB-231 cells)	fraction of treated mice with detectable metastatic tumors [3, 7] [%]	reduction of mean size of metastatic tumors (lung histology) [3, 7] [%]	number and size of pulmonary metastases compared with vehicle-treated mice ([3]; 8 mg/kg twice daily, oral gavage, weekly BLI for 5 weeks)	pulmonary tumor burden ([3]; 16 mg/kg/d divided into 2 doses)	tumor growth of established pulmonary metastasis (in vivo BLI) [4]	reduction of the number of eGFP cells in the lungs (MDA.pFULG cells) [%]	Cmax [5] [nM]	Cmax [6] [nM]
Cc1nnc(C(C)C)n1[C@@H]1C[C@H]2CC[C@@H](C1)N2CC[C@H](NC(=O)C1CCC(F)(F)CC1)c1ccccc1 [maraviroc, 4,4-difluoro-N-[(1S)-3-[(1R,5S)-3-(3-methyl-5-propan-2-yl-1,2,4-triazol-4-yl)-8-azabicyclo[3.2.1]octan-8-yl]-1-phenylpropyl]cyclohexane-1-carboxamide]	65	inhibited FBS-induced breast cancer cell invasion	inhibited FBS-induced breast cancer cell invasion	did not affect the MTT reduction	50	65	significant reduction	significantly reduced	did not modify tumor growth	40	1200	1040
COC[C@@H](c1ccc(C(F)(F)F)cc1)N1CCN(C2(C)CCN(C(=O)c3c(C)ncnc3C)CC2)C[C@@H]1C [vicriviroc, (4,6-dimethylpyrimidin-5-yl)-[4-[(3S)-4-[(1R)-2-methoxy-1-[4-(trifluoromethyl)phenyl]ethyl]-3-methylpiperazin-1-yl]-4-methylpiperidin-1-yl]methanone]	90	inhibited FBS-induced breast cancer cell invasion	inhibited FBS-induced breast cancer cell invasion	did not affect the MTT reduction								
